The subject of the experiment is production of TNF by monocytes activated with bacterial lipopolysaccharide (LPS). The experiment is described as follows: Lipopolysaccharide-activated monocyte TNF production assay. It is filed as cell-based. Conditions: Homo sapiens; whole blood monocyte assay (LPS induced TNF release). In outline: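 Adherent human PBMC-derived monocytes preincubated 60 min with nine two-fold compound dilutions, then stimulated with E. coli K532 LPS (30 ng/mL in the added medium) for 4 h at 37 °C. Supernatant TNF measured by sandwich ELISA; IC50 is the compound concentration halving TNF production, from second-order polynomial fits.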

Among the data in US7759337B2, “Phthalazine compounds and methods of use” (Amgen Inc., priority 2005, dated 2010) are IC50 values, retold here.

Some results are limits rather than exact numbers.

With `Cc1cc(S(N)(=O)=O)ccc1-c1nncc2cc(Oc3ccc(F)cc3)ccc12` [Example 364, 4-[6-(4-fluorophenoxy)phthalazin-1-yl]-3-methylbenzenesulfonamide], the IC50 – broadly, the point on the concentration scale where inhibition reaches its midpoint – was ≤ 5 µM.
Under `Cc1ccc(C(N)=O)cc1-c1ccc2c(-c3ccc(Cl)cc3C)nncc2c1` [Example 232, 3-[1-(4-chloro-2-methylphenyl)phthalazin-6-yl]-4-methylbenzamide] stands ≤ 5 µM; under `Cc1ccccc1-c1nncc2cc(Oc3cccc(C(=O)NC4CC4)c3)ccc12` [Example 352, N-cyclopropyl-3-{[1-(2-methylphenyl)phthalazin-6-yl]oxy}benzamide], ≤ 5 µM.
The result for `Cc1ccc(C(=O)NC2CC2)cc1-c1ccc2c(C(=O)N3CCOCC3)nncc2c1` [Example 85, N-Cyclopropyl-4-methyl-3-[1-(morpholin-4-ylcarbonyl)phthalazin-6-yl]benzamide] reads ≤ 5 µM.
The result for `CC(C)Nc1noc2c(-c3ccc4c(N5CCOC[C@@H]5C)nncc4c3)c(Cl)ccc12` [Example 402, 6-chloro-N-isopropyl-7-{1-[(3S)-3-methylmorpholin-4-yl]phthalazin-6-yl}-1,2-benzisoxazol-3-amine] reads ≤ 5 µM.
For the molecule `CC(=O)Nc1noc2c(-c3ccc4c(N5CCOC[C@@H]5C)nncc4c3)c(C)ccc12` [Example 403, N-(6-methyl-7-{1-[(3S)-3-methylmorpholin-4-yl]phthalazin-6-yl}-1,2-benzisoxazol-3-yl)acetamide], the 50% inhibitory concentration (IC50) was ≤ 5 µM.
Turning to `Cc1ccc(-c2nncc3cc(-c4cc(C(=O)NC5CC5)ccc4C)ccc23)c(C)c1` [Example 18, N-cyclopropyl-3-[1-(2,4-dimethylphenyl)phthalazin-6-yl]-4-methylbenzamide], the 50% inhibitory concentration (IC50) was ≤ 5 µM.
Under `O=C(NC1CC1)c1ccc(Cl)c(-c2ccc3c(N4CCOCC4)nncc3c2)c1` [Example 38, 4-chloro-N-cyclopropyl-3-(1-morpholinophthalazin-6-yl)benzamide] stands ≤ 5 µM; under `CC[C@@H](C)Oc1nncc2cc(-c3cc(C(N)=O)ccc3C)ccc12` [Example 324, 4-methyl-3-(1-{[(1R)-1-methylpropyl]oxy}phthalazin-6-yl)benzamide], ≤ 5 µM.
In the case of `COc1nncc2cc(-c3cc(C(N)=O)ccc3C)ccc12` [Example 118, 3-(1-methoxyphthalazin-6-yl)-4-methylbenzamide], the IC50 is ≤ 5 µM.
`Cc1ccc(C(=O)NC2CC2)cc1-c1ccc2c(-c3ccc(Cl)cc3C)nncc2c1` [Example 257, 3-[1-(4-chloro-2-methylphenyl)phthalazin-6-yl]-N-cyclopropyl-4-methylbenzamide]: the IC50 is ≤ 5 µM.
The result for `CC[C@@H](C)Oc1nncc2cc(-c3cc(C(=O)NC4CC4)ccc3C)ccc12` [Example 328, N-cyclopropyl-4-methyl-3-(1-{[(1R)-1-methylpropyl]oxy}phthalazin-6-yl)benzamide] reads ≤ 5 µM; that for `Cc1ccc(C(N)=O)cc1-c1ccc2c(N3CC[S+]([O-])CC3)nncc2c1` [Example 60, 4-methyl-3-[1-(1-oxidothiomorpholin-4-yl)phthalazin-6-yl]benzamide], ≤ 5 µM.
The result for `Cc1ccc(C(=O)NC2CC2)cc1-c1ccc2c(C3CCNCC3)nncc2c1` [Example 64, N-cyclopropyl-4-methyl-3-(1-(piperidin-4-yl)phthalazin-6-yl)benzamide] reads ≤ 5 µM; that for `Cc1ccc(C(=O)NC2CC2)cc1-c1ccc2c(-c3c[nH]c(=O)cc3C)nncc2c1` [Example 287, N-cyclopropyl-4-methyl-3-[1-(4-methyl-6-oxo-1,6-dihydropyridin-3-yl)phthalazin-6-yl]benzamide], ≤ 5 µM.
Under `Cc1ccccc1-c1nncc2cc(Oc3ccc(F)cc3F)ccc12` [Example 345, 6-(2,4-difluorophenoxy)-1-(2-methylphenyl)phthalazine] stands ≤ 5 µM.
Regarding `Cc1ccc(C(=O)NC2CC2)cc1-c1cnc2c(N3CCOCC3)nncc2c1` [Example 276, N-cyclopropyl-4-methyl-3-(8-morpholin-4-ylpyrido[2,3-d]pyridazin-3-yl)benzamide], the IC50 is ≤ 5 µM.
Under `CCNc1noc2c(-c3ccc4c(NC(C)C)nncc4c3)c(C)ccc12` [Example 389, 6-[3-(ethylamino)-6-methyl-1,2-benzisoxazol-7-yl]-N-isopropylphthalazin-1-amine] stands ≤ 5 µM.
With `Cc1ccc(C(=O)NC2CC2)cc1-c1ccc2c(N(C)C(C)C)nncc2c1` [Example 290, N-cyclopropyl-3-{1-[isopropyl(methyl)amino]phthalazin-6-yl}-4-methylbenzamide], the IC50 is ≤ 5 µM.
Under `Cc1ccccc1-c1nncc2cc(Oc3cccc(C(=O)O)c3)ccc12` [Example 354, 3-{[1-(2-methylphenyl)phthalazin-6-yl]oxy}benzoic acid] stands ≤ 5 µM.
On to `Cc1ccc(S(C)(=O)=O)cc1-c1ccc2c(N3CCOCC3)nncc2c1` [Example 195, 6-[2-methyl-5-(methylsulfonyl)phenyl]-1-morpholin-4-ylphthalazine], for which the IC50 was ≤ 5 µM.
Consider `Cc1ccc(C(=O)NC2CC2)cc1-c1ccc2c(N3CCn4c(nnc4C(F)(F)F)C3)nncc2c1` [Example 104, N-cyclopropyl-4-methyl-3-(1-(3-(trifluoromethyl)-5,6-dihydro-[1,2,4]triazolo[4,3-a]pyrazin-7(8H)-yl)phthalazin-6-yl)benzamide], for which the IC50 is ≤ 5 µM.
Under `Cc1ccc(C(N)=O)cc1-c1ccc2c(N[C@H](C)CO)nncc2c1` [Example 185, 3-(1-{[(1R)-2-hydroxy-1-methylethyl]amino}phthalazin-6-yl)-4-methylbenzamide] stands ≤ 5 µM.
The result for `Cc1ccc(S(N)(=O)=O)cc1-c1ccc2c(NC(C)C)nncc2c1` [Example 357, 3-[1-(isopropylamino)phthalazin-6-yl]-4-methylbenzenesulfonamide] reads ≤ 5 µM; that for `Cc1ccc(C(N)=O)cc1-c1ccc2c(N3CCN4C(=O)OC[C@@H]4C3)nncc2c1` [Example 280, 3-{1-[(8aS)-3-oxotetrahydro[1,3]oxazolo[3,4-a]pyrazin-7(1H)-yl]phthalazin-6-yl}-4-methylbenzamide], ≤ 5 µM.
The result for `Cc1ccc(C(=O)NC2CC2)cc1-c1ccc2c(-c3ccccc3C(N)=O)nncc2c1` [Example 98, 3-(1-(2-(aminocarbonyl)phenyl)-6-phthalazinyl)-N-cyclopropyl-4-methylbenzamide] reads ≤ 5 µM.
On to `Cc1ccc(C(=O)NC2CC2)cc1-c1ccc2c(N3CCN4C(=O)CC[C@@H]4C3)nncc2c1` [Example 267, 3-{1-[(8aR)-6-oxohexahydropyrrolo[1,2-a]pyrazin-2(1H)-yl]phthalazin-6-yl}-N-cyclopropyl-4-methylbenzamide], for which the IC50 was ≤ 5 µM.
Under `Cc1ccc(C(N)=O)cc1-c1ccc2c(N3C[C@H](C)N(CC(F)(F)F)C[C@H]3C)nncc2c1` [Example 368, 3-{1-[(2R,5S)-2,5-dimethyl-4-(2,2,2-trifluoroethyl)piperazin-1-yl]phthalazin-6-yl}-4-methylbenzamide] stands ≤ 5 µM.
As for `Cc1ccc(C(=O)NC2CC2)cc1-c1ccc2c(N3C[C@@H](C)N(CC(F)(F)F)C[C@@H]3C)nncc2c1` [Example 393, N-cyclopropyl-3-{1-[(2S,5R)-2,5-dimethyl-4-(2,2,2-trifluoroethyl)piperazin-1-yl]phthalazin-6-yl}-4-methylbenzamide], the IC50 was ≤ 5 µM.
The result for `Cc1ccc(C(=O)NC(C)C)cc1-c1ccc2c(NC(C)C)nncc2c1` [Example 404, N-isopropyl-3-[1-(isopropylamino)phthalazin-6-yl]-4-methylbenzamide] reads ≤ 5 µM; that for `Cc1ccc(C(N)=O)cc1-c1ccc2c(-c3ccc(Cl)cc3Cl)nncc2c1` [Example 223, 3-[1-(2,4-dichlorophenyl)phthalazin-6-yl]-4-methylbenzamide], ≤ 5 µM.
Under `COc1ccc(-c2nncc3cc(-c4cc(C(=O)NC5CC5)ccc4C)ccc23)c(C)c1` [Example 242, N-cyclopropyl-3-[1-(4-methoxy-2-methylphenyl)phthalazin-6-yl]-4-methylbenzamide] stands ≤ 5 µM; under `Fc1ccc(Oc2ccc3c(-c4ccccc4C(F)(F)F)nncc3c2)cc1` [Example 339, 6-(4-fluorophenoxy)-1-[2-(trifluoromethyl)phenyl]phthalazine], ≤ 5 µM; under `Fc1ccc(Oc2ccc3c(-c4cn[nH]c4)nncc3c2)cc1` [Example 344, 6-(4-fluorophenoxy)-1-(1H-pyrazol-4-yl)phthalazine], ≤ 5 µM.
The result for `Cc1ccccc1Oc1nncc2cc(-c3c(C)ccc4c(NC5CC5)noc34)ccc12` [Example 318, N-cyclopropyl-6-methyl-7-[1-(2-methylphenoxy)phthalazin-6-yl]-1,2-benzisoxazol-3-amine] reads ≤ 5 µM; that for `Cc1ccc(C(=O)NC2CC2)cc1-c1ccc2c(N3CCNC[C@H]3C)nncc2c1` [Example 110, N-cyclopropyl-4-methyl-3-{1-[(2R)-2-methylpiperazin-1-yl]phthalazin-6-yl}benzamide], ≤ 5 µM; that for `COc1ncc(-c2nncc3cc(-c4cc(C(N)=O)ccc4C)ccc23)c(OC)n1` [Example 225, 3-[1-(2,4-dimethoxypyrimidin-5-yl)phthalazin-6-yl]-4-methylbenzamide], ≤ 5 µM.
With `Cc1ccc(C(N)=O)cc1-c1ccc2c(-c3cc(F)ncc3C)nncc2c1` [Example 259, 3-[1-(2-fluoro-5-methylpyridin-4-yl)phthalazin-6-yl]-4-methylbenzamide], the IC50 was ≤ 5 µM.
The result for `Cc1ccc(C(=O)NC2CC2)cc1-c1ccc2c(N3CCNC(=O)CC3)nncc2c1` [Example 275, N-cyclopropyl-4-methyl-3-[1-(5-oxo-1,4-diazepan-1-yl)phthalazin-6-yl]benzamide] reads ≤ 5 µM.
Under `CS(=O)(=O)N1CCN(c2nncc3cc(Oc4ccc(F)cc4)ccc23)CC1` [Example 353, 6-(4-fluorophenoxy)-1-[4-(methylsulfonyl)piperazin-1-yl]phthalazine] stands ≤ 5 µM.
